Reference: publication PMC5662717, “Angiotensin II-derived constrained peptides with antiplasmodial activity and suppressed vasoconstriction” (Scientific Reports, 2017)
Where a SMILES comes first, the peptide text is derived from it. Bridges are numbered along the chain shown (N, C = ends). Where no end group is shown, it is not given here.

Columns and labels:
Plasmodium falciparum [1] = experiment: Erythrocytic invasion assay (new ring formation) and IC50 determination; type: cell-based; settings: 10^−8 mol L^−1 peptide, 24 h, W2 strain, 2–3% parasitemia, 5% hematocrit; reduction versus untreated control, normalized
Description: The effect of peptides in the P. falciparum erythrocytic cycle was assayed in vitro against a synchronized culture in the schizont form of P. falciparum, maintaining 5% hematocrit and 2% parasitemia. Twenty-four hours after treatment, all peptides reduced new ring formation within erythrocytes at 10^−8 mol L^−1, which was described by Saraiva et al. as the ideal concentration for these inhibition assays. The tests were carried out in duplicate and a total of ten experiments were performed (n = 10). Data were normalized due to differences between controls from each assay. It was observed that three analogs reduced the number of rings formed in the blood stage, but only analogs 1 and 2 presented inhibition >40%, when compared to the untreated controls (Fig. 2B).
The erythrocytic cycle of Plasmodium falciparum was maintained in vitro by culturing W2 strains in 1640 medium, supplemented with A-type human blood and serum, as described by Saraiva et al.[15] […]
To synchronize the parasite cultures into the ring stage, we used a sorbitol solution (5%) according to Lambros and Vanderberg[28]. […] Invasion was evaluated by the appearance of new ring forms. The invasion percentage was determined by optical microscopy (1000x magnification), which represents the total number of cells infected by rings in 100 erythrocytes in at least ten random microscopic fields. […]

Plasmodium = settings: cited from earlier work; for Antiplasmodial activity relative to Ang II (in words): lactam bridge analogs, ref 6 (Torres et al.); for Biological activity (antiplasmodial): ref 4 (Maciel et al.)
Excerpt: Three of these analogs (i.e., EDRKVYI ...

[2] = test system: Plasmodium gallinaceum sporozoites; experiment: Effect of peptides on salivary gland-derived sporozoites (membrane permeability, propidium iodide fluorescence microscopy); type: cell-based; settings: digitonin 40 μmol L–1 in PBS
Description: The effect of the peptides on sporozoites was determined in vitro by fluorescence microscopy. Briefly, the parasites were incubated for one hour in the presence of each peptide and the fluorophore propidium iodide, which stains dead and dying cells. The results are reported as the percent of fluorescent (i.e., inactivated) sporozoites. The analyses were carried out in triplicate, using three different mosquito batches (n = 9).
Aedes aegypti RED strain was used in experiments due to their hypersensitivity to P. gallinaceum parasite. Mosquitoes were reared using standard laboratory procedures. An aliquot of frozen chicken blood infected with the P. gallinaceum strain 8 A was obtained from A Krettli (René Rachou Institute of Research, FIOCRUZ, MG, Brazil). […]
Nine thousand P. gallinaceum mature sporozoites were pulled from the salivary glands of A. aegypti and incubated in 50 μL of PBS solution, with 40 μmol L^–1 digitonin (positive control), 60 μmol L^–1 peptides or negative control (PBS solution), at 37 °C for one hour. Cell membrane integrity was then observed using a Carl Zeiss inverted fluorescence microscope (model Observer Axio Vision A.1) coupled to an image capture Zeiss AxioCam HR digital camera (1,300 × 1,030 pixels resolution and 8-bit quantization) after addition of 1 μL of the propidium iodide aqueous solution (200 μmol L^–1) in 5 μL of total solution volume. […]

human red blood cells = type: cell-based; settings: for Hemolysis of red blood cells: red cells of human, 24 h, 1e-8 mol L^−1
Description: Assessing toxicity is a key requirement for translating novel compounds into the clinic. Therefore, we evaluated the hemolytic activity of Ang II peptide derivatives 1 and 2 towards erythrocyte human cells. Erythrocytes were seeded in 96-well plates in the absence (negative control) or presence of 10^−8 mol L^−1 of the analogs, as described in the Methods Section.
Figure 3 Hemolytic assay of human red blood cells. Red blood cells were treated with distilled water which causes lysis of red blood cells; uninfected erythrocytes were kept in the same conditions used in the invasion assay with a control and each peptide tested (10^−8 mol L^−1), at 37 °C for 24 h. After incubation, the supernatant was collected, clarified at 900 g/8 min and the hemoglobin content was detected in a spectrophotometer at […]. **** denotes statistical significance of group compared with distilled water value p < 0.05.
The hemolytic effect of analogs 1 and 2 was determined in uninfected erythrocytes. Cells were maintained in the same culture conditions in the presence of 10^−8 mol L^−1 of peptides for 24 h. Erythrocytes were centrifuged at 900 g for 8 min. The free hemoglobin in the supernatant was monitored by spectrophotometer at 550 nm. Untreated cells were used as negative control to rule out nonspecific hemolysis. The hemolytic activity was expressed as a percentage of the control. This positive control (100% hemolysis) was prepared by treating the erythrocytes with distilled water.

stomach fundus = test system: stomach fundus; set-up: species or system C57BL/6 J mice; settings: pH 7.4
Description: The bioassay experiment was carried out in duplicate and generated equivalent results. Experiments were carried out using C57BL/6 J mice from the Centro de Desenvolvimento de Modelos Experimentais da Universidade Federal de São Paulo (CEDEME-UNIFESP).
Stomach fundus was isolated from each mouse, divided into two strips along the longitudinal muscle, and mounted into 5 mL organ baths containing modified Krebs-Ringer solution [144 mmol L^–1 NaCl, 5 mmol L^–1 KCl, 1.1 mmol L^–1 MgSO4, 25 mmol L^–1 NaHCO3, 1.1 mmol L^–1 NaH2PO4, 1.25 mmol L^–1 CaCl2, and 5.5 mmol L^–1 glucose at 37 °C (pH 7.4)] and were continuously carboxygenated (95% O2/5% CO2)[29]. Contractile responses to the stimulations with Ang II and analogs 1 and 2 (10^–8 mol L^–1) were measured with a TRI201 tension transducer (PanLab) through an amplifier (Powerlab 4/30). Data were collected through Labchart Pro V7 software. The resting tension was maintained at 0.5 g and the tissues were left to equilibrate for 90 min. The bath solution was frequently changed. The maximal effect was obtained by comparing contractile responses induced by carbachol (10^–8 mol L^–1).

[3] = test system: Plasmodium gallinaceum sporozoites; settings: cited from earlier work; for Antiplasmodial activity against P. gallinaceum sporozoites, linear peptides: ref 12 (Silva et al.)
Excerpt: Silva et al.[12], tested several linear Ang II derivative peptides in vitro using both the P. gallinaceum sporozoite and the P. falciparum blood stage models. Two short peptides presented high antiplasmodial activity: YHPF and VIPF presented 89% and 94% activity against P. gallinaceum, respectively, and ~50% activity against erythrocyte invasion by P. falciparum. […] Analog 4 was designed via the removal of these two residues. Silva et al., studied linear peptides and observed that peptide DRVYHIPF had potent biological activity (94% against P. gallinaceum sporozoites). The sequence of peptide 1 is similar to that of Ang II, whereas peptide 2 presents a sequence that resembles Ang II with modifications in His and Ile residues (DRVYHIPF). Peptide 4, on the other hand, lacks Ile and His amino acid residues within its backbone. […] Peptide sequence CDRVCYIHPF[7] presented 76% (±3) antiplasmodial activity vs sporozoites of P. gallinaceum. Silva et al., studied different linear Ang II derivative peptides[12] and observed that when His and Ile residues are inverted, the antiplasmodial activity increased cf. peptides with the native primary sequence. To verify this observation, here we inverted the position of Ile and His residues in peptide 3. The resulting peptide presented increased antiplasmodial ...

Plasmodium falciparum [4] = settings: ref 12 (Silva et al.); cited from earlier work
Excerpt: Table 1 Design of angiotensin II-derived synthetic peptides. Purity of peptides determined by LC/MS is shown, along with their respective antiplasmodial activity and design rationale. | column: Antiplasmodial activity vs P. falciparum (new ring formation%) || Silva et al.[12], tested several linear Ang II derivative peptides in vitro using both the P. gallinaceum sporozoite and the P. falciparum blood stage models. Two short peptides presented high antiplasmodial activity: YHPF and VIPF presented 89% and 94% activity against P. gallinaceum, respectively, and ~50% activity against erythrocyte invasion by P. falciparum. […] The authors observed that Ang II reduced by 47% reinfection caused by ring forms. Silva and colleagues tested linear Ang II derivatives using the same model and observed that two short peptides were capable of reducing parasite reinfection >50%[12]. In this work, we tested designer peptides using the P. falciparum erythrocytic cycle and observed that two peptides (1 and 2) were able to reduce ... || (+ 1 further places)

## CVIPFC (disulfide 1-6 (inferred)) [Peptide 8]
Plasmodium falciparum [1]
  Antiplasmodial activity vs P. falciparum (new ring formation%): 3.5%

## EDRKVYIHPF (also: sidechain bridge or staple (positions not given here)) [lactam bridge Ang II analog of Torres et al]
Plasmodium
  Antiplasmodial activity relative to Ang II (in words): maintained the antiplasmodial activity of Ang II

## C[C@@H]1CC[C@@]2(OC1)O[C@H]1[C@@H](O)[C@H]3[C@@H]4CC[C@H]5C[C@@H](O[C@@H]6O[C@H](CO)[C@H](O[C@@H]7O[C@H](CO)[C@@H](O)[C@H](O[C@@H]8OC[C@@H](O)[C@H](O)[C@H]8O)[C@H]7O[C@@H]7O[C@H](CO)[C@H](O)[C@H](O[C@@H]8O[C@H](CO)[C@@H](O)[C@H](O)[C@H]8O)[C@H]7O)[C@H](O)[C@H]6O)[C@H](O)C[C@]5(C)[C@H]4CC[C@]3(C)[C@H]1[C@@H]2C [digitonin]
[2]
  Lysis of parasite membranes by the positive control: 100%

## CC[C@H](C)[C@@H]1NC(=O)[C@H](Cc2c[nH]cn2)NC(=O)[C@H](Cc2ccc(O)cc2)NC(=O)[C@H](C(C)C)NC(=O)[C@H](CCCNC(=N)N)NC(=O)[C@H](CC(=O)O)NC(=O)[C@@H](N)CSSC[C@@H](C(=O)O)NC(=O)[C@H](Cc2ccccc2)NC(=O)[C@@H]2CCCN2C1=O [Peptide 2] (H-CDRVYHIPFC-OH; disulfide 1-10)
Human red blood cells
  Hemolytic effect (in words): did not present hemolytic effects
  Hemolysis of red blood cells: < 6%
Stomach fundus
  Contractile response / vasoconstriction (in words): complete suppression of vasoconstriction

## YHPF [short linear Ang II derivative of Silva et al]
[3]
  Antiplasmodial activity against P. gallinaceum sporozoites, linear peptides: 89%
Plasmodium falciparum [4]
  Activity against erythrocyte invasion by P. falciparum, linear peptides: ~ 50%

## DRVYHIPF [linear Ang II derivative of Silva et al., linear counterpart of peptide 2]
[3]
  Antiplasmodial activity against P. gallinaceum sporozoites, linear peptides: 94%

## VIPF [short linear Ang II derivative of Silva et al]
[3]
  Antiplasmodial activity against P. gallinaceum sporozoites, linear peptides: 94%
Plasmodium falciparum [4]
  Activity against erythrocyte invasion by P. falciparum, linear peptides: ~ 50%

## DRDVKYIHPF (also: sidechain bridge or staple (positions not given here)) [VC-5, restricted (lactam bridge) Ang II analog of Maciel et al]
Plasmodium
  Biological activity (antiplasmodial): 78%

## DDRKVYIHPF [VC-4, linear Ang II analog of Maciel et al]
Plasmodium
  Biological activity (antiplasmodial): 64%

## CC[C@H](C)[C@@H]1NC(=O)[C@H](Cc2ccc(O)cc2)NC(=O)[C@H](C(C)C)NC(=O)[C@H](CCCNC(=N)N)NC(=O)[C@H](CC(=O)O)NC(=O)[C@@H](N)CSSC[C@@H](C(=O)O)NC(=O)[C@H](Cc2ccccc2)NC(=O)[C@@H]2CCCN2C(=O)[C@H](Cc2c[nH]cn2)NC1=O [Peptide 1] (H-CDRVYIHPFC-OH; disulfide 1-10)
Human red blood cells
  Hemolytic effect (in words): did not present hemolytic effects
  Hemolysis of red blood cells: < 6%
Stomach fundus
  Contractile response / vasoconstriction (in words): complete suppression of vasoconstriction

## CDRVCYIHPF (disulfide 1-5 (inferred)) [S-S restricted Ang II analog of Torres et al]
[3]; ref 7 (Torres et al.)
  Antiplasmodial activity vs sporozoites of P. gallinaceum, S-S restricted analog: 76%

## EDRVOYIHPF (sidechain bridge or staple) [lactam bridge Ang II analog of Torres et al]
Plasmodium
  Antiplasmodial activity relative to Ang II (in words): maintained the antiplasmodial activity of Ang II
